Experimental data: publication PMC4186431 (Pharmacology Research & Perspectives, 2013)
Like-named read-outs stand apart in the source and are kept apart here. One block for each molecule: values may come before it.

Key:
[1] = system: forskolin-stimulated adenylate cyclase activity in HEK-hu5-HT7 cells; assay: Forskolin-stimulated cAMP production in the presence of the compounds, HEK-hu5-HT7 cells; assay type: cell-based; conditions: Homo sapiens; 10 μmol/L forskolin, continuous presence of the compounds; read-out: IC50, inhibition of forskolin-stimulated adenylate cyclase activity
Protocol: (§1) cAMP levels were quantified using the homogeneous time-resolved fluorescence (HTRF)-based cAMP dynamic kit (Cisbio, Bioassays, Codolet, France). […] In all cases, basal cAMP levels were determined in control wells in the absence of agonist. The effects of the compounds on forskolin-stimulated adenylate cyclase activity were evaluated either at a single concentration (parental HEK293 cells) or by using concentration–response curves (HEK-hu5-HT7 cells). Cells were incubated in the absence (control) or presence of the compounds, at the concentrations indicated, in assay buffer for 15 min at 37°C prior to the addition of forskolin and further incubation for 15 min. Basal cAMP levels were determined in control wells in the absence of forskolin. After proceeding with the subsequent assay steps according to the manufacturer's protocol, the fluorescence emission intensity ratio at 665/620 nm wavelength was measured in an Ultra Evolution 384 microplate reader (TECAN, Männedorf, Switzerland).
The data were analyzed using GraphPad Prism software v4.0 (GraphPad Software Inc., San Diego, CA). Receptor density (Bmax) and the dissociation constant (Kd) of the radioligand were determined by nonlinear regression curve fitting of saturation binding curves to a one-site binding (hyperbola) model. […] Results are expressed as the mean values ± SEM from the number of independent experiments indicated. […]

mouse hippocampal slices = system: mouse hippocampal slices; parameters: method as in Costa et al. [2012]; conditions: ref Costa et al. [2012]; cited from earlier work
[2] = system: isolated guinea pig ileum; parameters: method as in Leopoldo et al. [2008]; conditions: ex vivo; ref Leopoldo et al. [2008]; cited from earlier work
[3] = parameters: method as in Hedlund et al. [2010]; conditions: mice; ref Hedlund et al. [2010]; cited from earlier work
human 5-HT7(a) receptor [4] = molecular target: T1, human 5-HT7(a) receptor (Homo sapiens, UniProt P34969); assay: cAMP assay, agonist effects in HEK-hu5-HT7 cells; assay type: cell-based; conditions: 100 pmol/L to 10 μmol/L, data not shown
Protocol: as §1

mice = system: mice; parameters: method as in Adriani et al. [2012]; conditions: ref Adriani et al. [2012]; cited from earlier work
human 5-HT7(a) receptor [5] = molecular target: T1, human 5-HT7(a) receptor; assay: Whole-cell [^3H]-SB-269970 radioligand binding (preincubation/washout experiments); conditions: for inhibition at 10 µM: read-out: Inhibition of specific binding of [^3H]-SB-269970 after preincubation and washout, 10 μmol/L, 30 min at 37°C, time t = 0 after washout
Protocol: After incubation for 30 min at 37°C, the assay was stopped, as previously described.
(§2) The data were analyzed using GraphPad Prism software v4.0 (GraphPad Software Inc., San Diego, CA). Receptor density (Bmax) and the dissociation constant (Kd) of the radioligand were determined by nonlinear regression curve fitting of saturation binding curves to a one-site binding (hyperbola) model. […] The IC50 values were determined by nonlinear regression curve fitting to sigmoidal dose–response or sigmoidal dose–response (variable slope) models, as indicated. […] Results are expressed as the mean values ± SEM from the number of independent experiments indicated. Prediction of log of octanol/water partition coefficient (xlog P) values were retrieved from ZINC database (http://zinc.docking.org/) (Irwin et al. [2012]).

[6] = system: wild type and 5-HT7 knock-out mice; parameters: method as in Hedlund et al. [2010]; conditions: ref Hedlund et al. [2010]; cited from earlier work
rat 5-HT7 receptors = molecular target: rat 5-HT7 receptors; parameters: method as in Leopoldo et al. [2008]; Hedlund et al. [2010]; conditions: cloned in cell lines; ref Leopoldo et al. [2008]; Hedlund et al. [2010]; cited from earlier work
[7] = system: forskolin-stimulated adenylate cyclase activity in HEK-hu5-HT7 cells; assay: Forskolin-stimulated cAMP production, preincubation/washout experiments, HEK-hu5-HT7 cells; assay type: cell-based; conditions: Homo sapiens; 30 min preincubation, washout, then 10 μmol/L forskolin 15 min, n = 3; read-out: IC50, irrev, forskolin-stimulated adenylate cyclase activity
Protocol: (§3) After proceeding with the subsequent assay steps according to the manufacturer's protocol, fluorescence was measured as previously described.
(§4) The data were analyzed using GraphPad Prism software v4.0 (GraphPad Software Inc., San Diego, CA). Receptor density (Bmax) and the dissociation constant (Kd) of the radioligand were determined by nonlinear regression curve fitting of saturation binding curves to a one-site binding (hyperbola) model. […] The IC50 values were determined by nonlinear regression curve fitting to sigmoidal dose–response or sigmoidal dose–response (variable slope) models, as indicated. […] Results are expressed as the mean values ± SEM from the number of independent experiments indicated.

human 5-HT7(a) receptor [8] = molecular target: T1, human 5-HT7(a) receptor; assay: Membrane homogenate [^3H]-SB-269970 radioligand binding; conditions: for Hill slope nH (membrane homogenate radioligand binding): [^3H]-SB-269970 competition, best fit model (nH = 1 or variable slope)
Protocol: Cell membrane homogenate was prepared as previously described (Varin et al. [2010]). […] After incubation, the reactions were stopped by filtration in a harvester apparatus through GF/B filters pretreated with 0.25% (w/v) poly(ethyleneimine) solution. Filters were counted in a LS-6000LL beta counter (Beckman Coulter, Inc., Fullerton, CA, USA).
as §2

5-HT1A [9] = conditions: ref Leopoldo et al. [2008], cited from earlier work
[10] = system: rat trigeminal nucleus caudalis; parameters: method as in Martínez-García et al. [2011]; conditions: ref Martínez-García et al. [2011]; cited from earlier work
D2 = molecular target: D2; parameters: method as in Leopoldo et al. [2008]; conditions: ref Leopoldo et al. [2008]; cited from earlier work
[11] = system: forskolin-stimulated adenylate cyclase activity in parental HEK293 cells; assay: Forskolin-stimulated cAMP production in parental HEK293 cells; assay type: cell-based, human; conditions: 1 μmol/L or 10 μmol/L compound, parental HEK293 cells (Fig. 7 inset)
Protocol: as §1

human 5-HT7(a) receptor [12] = molecular target: T1, human 5-HT7(a) receptor; assay: Whole-cell [^3H]-SB-269970 radioligand binding (in the presence of the compounds)
Protocol: as §2

human 5-HT7(a) receptor [13] = molecular target: T1, human 5-HT7(a) receptor; assay: 5-CT-stimulated cAMP assay in the presence of the compounds (antagonist curves, Schild analysis), HEK-hu5-HT7 cells; assay type: cell-based
Protocol: as §1, with “forskolin.” for “forskolin. After proceeding with the subsequent assay steps according to the manufacturer's protocol, the fluorescence emission intensity ratio at 665/620 nm wavelength was measured in an Ultra Evolution 384 microplate reader (TECAN, Männedorf, Switzerland).”
as §4

human 5-HT7 receptors [14] = molecular target: T2, human 5-HT7 receptors (Homo sapiens, UniProt P34969); conditions: estimated from experiments with behavior not compatible with classical competitive binding; ref Leopoldo et al. [2008]; cited from earlier work
human 5-HT7 receptors [15] = molecular target: T2, human 5-HT7 receptors; assay: [^3H]-LSD binding in membrane homogenates of HEK-hu5-HT7 cells
5-HT1A [16] = assay: Literature affinity for 5-HT1A receptors; assay type: binding; conditions: reported 5-HT1A affinity versus 5-HT7 affinity of this study; ref Leopoldo et al. [2008]
human 5-HT7(a) receptor [17] = molecular target: T1, human 5-HT7(a) receptor; assay: 5-CT-stimulated cAMP assay, preincubation/washout experiments, HEK-hu5-HT7 cells; assay type: cell-based; conditions: read-out: IC50, irrev, 5-CT-stimulated cAMP production
Protocol: as §3, §4

5-HT7 receptors = system: 5-HT7 receptors; parameters: method as in Lacivita et al. [2012]; conditions: ref Lacivita et al. [2012]; cited from earlier work

T2 sequence (P34969 1-445 isoform P34969-2): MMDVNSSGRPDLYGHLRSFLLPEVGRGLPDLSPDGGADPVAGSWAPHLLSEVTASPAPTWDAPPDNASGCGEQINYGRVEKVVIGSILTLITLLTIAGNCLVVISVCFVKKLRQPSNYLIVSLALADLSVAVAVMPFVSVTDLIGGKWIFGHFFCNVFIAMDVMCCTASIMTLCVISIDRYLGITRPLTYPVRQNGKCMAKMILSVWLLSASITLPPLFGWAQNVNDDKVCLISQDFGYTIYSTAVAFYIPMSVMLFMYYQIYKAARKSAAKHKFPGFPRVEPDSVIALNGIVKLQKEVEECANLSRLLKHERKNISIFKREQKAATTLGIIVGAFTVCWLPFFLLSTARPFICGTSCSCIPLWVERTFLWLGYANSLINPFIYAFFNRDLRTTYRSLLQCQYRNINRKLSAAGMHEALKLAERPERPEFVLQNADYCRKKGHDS
T1 sequence (P34969 1-445 isoform P34969-2): as above

inhibition at 10 µM (human 5-HT7(a) receptor [5]): 95.03 ± 0.47%
Hill slope nH (membrane homogenate radioligand binding) (human 5-HT7(a) receptor [8]): 1
Compound: N#Cc1ccc(CNC(=O)CCCCCN2CCN(c3ccccc3-c3ccccc3)CC2)cc1 [LP-211, N-(4-cyanophenylmethyl)-4-(2-diphenyl)-1-piperazinehexanamide]
IC50 [1]: 60.71 ± 0.48 nM
Effect on long-term synaptic depression induced by metabotropic glutamate receptors (mouse hippocampal slices): reverted long-term synaptic depression
Effect on substance P-induced contraction in isolated guinea pig ileum [2]: elicited relaxation of substance P-induced contraction
Metabolism in disposition studies [3]: undergoes N-dealkylation to RA-7
Agonist effect on cAMP levels (human 5-HT7(a) receptor [4]): did not elicit any detectable increase in cAMP levels
Behavioural effect in mice (anxiety) (mice): antianxiety-like effects
Effect on body temperature in wild type and 5-HT7 knock-out mice [6]: induced hypothermia in wild type but not in 5-HT7 knock-out mice
Ki (rat 5-HT7 receptors): 0.58 nM
IC50 [7]: 13.9 ± 3.93 nM
Ki (5-HT1A [9]; Hedlund et al. [2010]): 188 to 379 nM
Effect on capsaicin-induced increase in Fos-like immunoreactivity [10]: able to modulate the capsaicin-induced increase
Ki (D2): 142 nM
Effect on forskolin-stimulated cAMP production in the parental cell line [11]: no effect

Ki (human 5-HT7(a) receptor [12]; read-out: 5-HT7 affinity (whole-cell radioligand binding) Ki): 13.8 ± 0.24 nM
IC50 (human 5-HT7(a) receptor [13]): 27.8 ± 6.72 nM
IC50 (human 5-HT7(a) receptor [5]; 30 min preincubation, washout, then 2 nmol/L radioligand): 22.4 ± 7.63 nM
inhibition at 10 µM (human 5-HT7(a) receptor [5]): 97.2 ± 0.23%
nH, displacement of [^3H]-LSD binding (human 5-HT7 receptors [15]; data not shown): 1.11 ± 0.19
Ki (human 5-HT7 receptors [15]; n = 3, data not shown, read-out: Ki, displacement of [^3H]-LSD binding): 37.9 ± 11.3 nM
5-HT7 affinity (membrane homogenate radioligand binding) pKi (human 5-HT7(a) receptor [8]; 2 nmol/L [^3H]-SB-269970, HEK-hu5-HT7 membrane homogenate): 7.78
Ki (human 5-HT7(a) receptor [8]; 2 nmol/L [^3H]-SB-269970, HEK-hu5-HT7 membrane homogenate, 60 min 37°C, read-out: 5-HT7 affinity (membrane homogenate radioligand binding) Ki): 16.6 ± 0.99 nM
Hill slope nH (membrane homogenate radioligand binding) (human 5-HT7(a) receptor [8]): 1.34 ± 0.14
Fold lower affinity for 5-HT1A receptors than for 5-HT7 receptors (5-HT1A [16]): 9.7 fold
IC50 (human 5-HT7(a) receptor [17]): 41.8 ± 18 nM
Compound: O=C(CCCCCN1CCN(c2ccccc2-c2ccccc2)CC1)NCc1ccccc1 [MEL-9, N-benzyl-4-(2-diphenyl)-1-piperazinehexanamide]
IC50 [1]: 19.3 ± 8.18 nM
Agonist effect on cAMP levels (human 5-HT7(a) receptor [4]): did not elicit any detectable increase in cAMP levels
Ki (human 5-HT7 receptors [14]): 0.8 nM
IC50 [7]: 11.2 ± 3.25 nM
Ki (5-HT1A [9]): 503 nM
Ki (D2): 161 nM
Effect on forskolin-stimulated cAMP production in the parental cell line [11]: no effect

Compound: c1ccc(-c2ccccc2N2CCNCC2)cc1 [RA-7, 1-(2-biphenyl)piperazine]
Action at 5-HT7 receptors in HeLa cells (5-HT7 receptors): high-affinity receptor 5-HT7 antagonist
remaining activity at 10 µM (human 5-HT7(a) receptor [12]; read-out: [^3H]-SB-269970 specific binding (percent of control), competitive whole-cell binding, 10 μmol/L, n = 3): 0.64 ± 0.44%
Inhibition of specific binding of [^3H]-SB-269970 after preincubation and washout (human 5-HT7(a) receptor [5]; 10 μmol/L, 30 min at 37°C, time t = 0 after washout): ~50%
Duration of inhibition of [^3H]-SB-269970 binding after compound removal (human 5-HT7(a) receptor [5]; preincubation with 10 μmol/L, recovery followed at 0, 1, 3, 6 and 24 h): at least 24 h
inhibition at 10 µM (human 5-HT7(a) receptor [5]): 54.8 ± 5.15%
